Each molecule was assayed against T1, GLP-1R (Homo sapiens, UniProt P43220) (assay: EC20 GLP-1(9-36) PAM cAMP assay: dose response of compound in the presence of fixed concentration of GLP-1(9-36)). Conditions: GLP-1R CRE-bla CHO-K1 cells, compound dose response with fixed concentration of GLP-1(9-36), read-out: EC20 GLP-1(9-36) PAM EC50.
T1 construct: host or cells: GLP-1R CRE-bla CHO-K1 cells
Type: cell-based
Outline: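 Positive allosteric modulation read as cAMP accumulation: compound titrations (12 points) combined with an EC20 level of GLP-1(9-36) on CHO-K1 GLP-1R CRE-bla cells, IBMX present, 30 min, 37 °C, pH 7.4 buffer. Luminescence converted to cAMP via standards; non-linear fit gave EC50 and Emax.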

T1 sequence (P43220 24-463): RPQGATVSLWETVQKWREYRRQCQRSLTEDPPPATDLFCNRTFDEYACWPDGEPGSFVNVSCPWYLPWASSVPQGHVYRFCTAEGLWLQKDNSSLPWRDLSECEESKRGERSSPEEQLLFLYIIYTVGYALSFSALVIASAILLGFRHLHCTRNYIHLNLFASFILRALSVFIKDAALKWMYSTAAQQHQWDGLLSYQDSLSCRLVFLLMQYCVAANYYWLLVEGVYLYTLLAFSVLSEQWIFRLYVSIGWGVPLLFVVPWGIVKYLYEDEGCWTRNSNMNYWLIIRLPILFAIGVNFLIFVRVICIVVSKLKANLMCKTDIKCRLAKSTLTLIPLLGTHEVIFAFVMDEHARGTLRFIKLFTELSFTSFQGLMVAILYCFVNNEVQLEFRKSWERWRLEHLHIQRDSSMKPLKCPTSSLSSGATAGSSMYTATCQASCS
T1 sequence (P01275 100-127 partner limits assumed): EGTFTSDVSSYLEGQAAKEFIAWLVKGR

EC50 [µM] | Compound
0.8 to 2.5 | CCCCCOc1ccc(-c2ccc(-c3cnc(-c4ccc(C[C@H](NC(=O)c5ccc(C(C)(C)C)s5)C(=O)N[C@H](C)C(=O)O)cc4)nc3)cc2)cc1 [Compound 1309]
0.8 to 2.5 | CCOc1ccc(C2CCN(c3cnc(-c4ccc(CC(NC(=O)c5ccc(C(C)(C)C)s5)C(=O)N5CC(C(=O)O)C5)cc4)nc3)CC2)cc1 (centres unmarked) [Compound 1490]
0.8 to 2.5 | CC(C)C1CCN(c2cnc(-c3ccc(CC(NC(=O)c4ccc(C(C)(C)C)s4)C(=O)N4CC(C(=O)O)C4)cc3)nc2)CC1 (centres unmarked) [Compound 1422]
0.8 to 2.5 | CC[C@H]1CC[C@H](c2ccc(-c3cnc(-c4ccc(C[C@H](NC(=O)c5ccc(C(F)(F)F)cc5)C(=O)O)cc4)nc3)cc2)CC1 [Compound 1374]
0.8 to 2.5 | CCCOc1ccc(C2CCN(c3cnc(-c4ccc(C[C@H](NC(=O)c5ccc(C(C)(C)C)s5)C(=O)N5CC(C(=O)O)C5)cc4)nc3)CC2)cc1 [Compound 1494]
0.8 to 2.5 | Cc1ccc(/C=C/c2cnc(-c3ccc(C[C@H](NC(=O)c4ccc(C(C)(C)C)s4)C(=O)N[C@H](C)C(=O)O)cc3)nc2)cc1 [Compound 1264]
0.8 to 2.5 | CC(=O)c1ccc(-c2ccc(-c3cnc(-c4ccc(C[C@H](NC(=O)c5ccc(C(C)(C)C)s5)C(=O)O)cc4)nc3)cc2)cc1 [Compound 1352]
< 0.8 | CCC[C@H]1CC[C@H](C2CCN(c3cnc(-c4ccc(C[C@H](NC(=O)c5ccc(C(C)(C)C)s5)C(=O)N[C@H](CC)C(=O)O)cc4)nc3)CC2)CC1 [Compound 1443]
2.5 to 5 | CC[C@H]1CC[C@H](c2ccc(-c3cnc(-c4ccc(C[C@H](NC(=O)c5ccc(C(C)(C)C)s5)C(=O)O)cc4)nn3)cc2)CC1 [Compound 1336, (S)-2-(5-(tert-butyl)thiophene-2-carboxamido)-3-(4-(6-(4-((1r,4r)-4-ethylcyclohexyl)phenyl)-1,2,4-triazin-3-yl)phenyl)propanoic acid]
5 to 10 | C[C@@H](NC(=O)[C@H](Cc1ccc(-c2ncc(/C=C/c3cc(F)cc(F)c3)cn2)cc1)NC(=O)c1ccc(C(C)(C)C)s1)C(=O)O [Compound 1256]

Same assay, conditions: dose response of compound in presence of fixed concentration of GLP-1(9-36), GLP-1R CRE-bla CHO-K1 cells, read-out: EC20 GLP-1(9-36) PAM EC50

EC50 [µM] | Compound
0.8 to 2.5 | CCCCCCCOc1ccc(-c2cnc(-c3ccc(C[C@H](NC(=O)c4ccc(C(C)C)cc4)C(=O)N4CC[C@H](C(=O)O)C4)cc3)nc2)cc1 [Compound 844]
2.5 to 5 | COc1ccc(-c2cnc(-c3ccc(C[C@H](NC(=O)c4ccc(C(C)(C)C)s4)C(=O)N[C@H](C)C(=O)O)cc3)nc2)c(F)c1OC1CCCC1 [Compound 1019]
5 to 10 | CCCCCCCOc1ccc(-c2cnc(-c3ccc(C[C@H](NC(=O)c4ccc(C(C)(C)C)s4)C(=O)NC(C)CO)cc3)nc2)cc1 (some centres unmarked) [Compound 387]
< 0.8 | CCCCCCCOc1ccc(-c2cnc(-c3ccc(C[C@H](NC(=O)c4ccc(C(C)(C)C)cc4)C(=O)NCC(=O)NCC(=O)O)cc3)nc2)cc1 [Compound 444]
0.8 to 2.5 | Cc1ccc(/C=C/c2cnc(-c3ccc(C[C@H](NC(=O)c4ccc(C(C)(C)C)s4)C(=O)N4CC[C@H](C(=O)O)C4)cc3)nc2)cc1 [Compound 1085]
< 0.8 | CCCCCCCOc1ccc(-c2cnc(-c3ccc(C[C@H](NC(=O)c4ccc(C(C)(C)C)cc4)C(=O)NC(C(=O)O)c4cccnc4)cc3)nc2)cc1 (some centres unmarked) [Compound 468]
0.8 to 2.5 | CCCCCCCOc1ccc(-c2cnc(-c3ccc(C[C@H](NC(=O)c4ccc(CC)cc4)C(=O)NC(C(=O)O)C(O)c4ccccc4)cc3)nc2)cc1 (some centres unmarked) [Compound 947]
< 0.8 | CCCCCCCOc1ccc(-c2cnc(-c3ccc(C[C@H](NC(=O)c4ccc(C(C)(C)C)cc4)C(=O)N[C@H](CC(=O)NC)C(=O)O)cc3)nc2)cc1 [Compound 591]
2.5 to 5 | CC(C)(C)c1ccc(C(=O)N[C@@H](Cc2ccc(-c3ncc(-c4ccc(C5CCOCC5)cc4)cn3)cc2)C(=O)N2CC(C(=O)O)C2)s1 [Compound 1180]
2.5 to 5 | CCCCCCCOc1ccc(-c2cnc(-c3ccc(C[C@H](NC(=O)c4ccc(C(C)(C)C)s4)C(=O)N[C@H](C(=O)O)C(C)c4ccccc4)cc3)nc2)cc1 (some centres unmarked) [Compound 899]
